Experimental data taken from BindingDB's records for patent WO2022081842 (THE BROAD INSTITUTE, INC., 2022).

target: T1, Histone acetyltransferase KAT6A [507-778] (Human, UniProt Q92794); experiment: Kat6a Activity Assay
T1 construct: 507-778
Text: Kat6a inhibitory activities of the compounds described in the present invention were quantified using a Fluorescence Resonance Energy Transfer (TR-FRET) assay which measures acetylation of a synthetic, biotinylated Histone-H4-derived peptide by the enzyme.Recombinant human His-tagged Kat6a protein (amino acids 194-810), was purified in-house from Baculovirus- infected insect cells (Sf9). Histone H4 peptide (amino acids 1-24, […]-VLRD-K(Btn)-amide), which was used as substrate, was synthesized by Biosyntan GmbH, Berlin, Germany. Acetyl Coenzyme A was purchased from Sigma-Aldrich (#A-2056).Kat6a was incubated for 60 mins at 22°C in the presence of different concentrations of test substances (0 μM, and within the range 0.01 - 20 μM) in assay buffer [25 mM Tris/HCl pH 8, 1 mM EGTA, 2.5 mM Glutathion, 0.02% Chicken Albumin, 0.05% Pluronic F127, 25 mM NaCl, 220 nM H4 peptide and 600 nM Acetyl Coenzyme A].The reaction was stopped by addition of Detection Solution (25mM HEPES pH 7.5, 0.1% BSA, 22nM SAXL665 (Cisbio #610SAXLE), 100μM Anacardic Acid (Enzo #ALX-270-381), 1nM Anti-Histone H4 (ACETYL K8) Antibody (ABCAM #AB15823) and 0.5 nM Anti-Rabbit IgG Eu (Perkin Elmer #AD0083).

T1 sequence (Q92794 whole entry): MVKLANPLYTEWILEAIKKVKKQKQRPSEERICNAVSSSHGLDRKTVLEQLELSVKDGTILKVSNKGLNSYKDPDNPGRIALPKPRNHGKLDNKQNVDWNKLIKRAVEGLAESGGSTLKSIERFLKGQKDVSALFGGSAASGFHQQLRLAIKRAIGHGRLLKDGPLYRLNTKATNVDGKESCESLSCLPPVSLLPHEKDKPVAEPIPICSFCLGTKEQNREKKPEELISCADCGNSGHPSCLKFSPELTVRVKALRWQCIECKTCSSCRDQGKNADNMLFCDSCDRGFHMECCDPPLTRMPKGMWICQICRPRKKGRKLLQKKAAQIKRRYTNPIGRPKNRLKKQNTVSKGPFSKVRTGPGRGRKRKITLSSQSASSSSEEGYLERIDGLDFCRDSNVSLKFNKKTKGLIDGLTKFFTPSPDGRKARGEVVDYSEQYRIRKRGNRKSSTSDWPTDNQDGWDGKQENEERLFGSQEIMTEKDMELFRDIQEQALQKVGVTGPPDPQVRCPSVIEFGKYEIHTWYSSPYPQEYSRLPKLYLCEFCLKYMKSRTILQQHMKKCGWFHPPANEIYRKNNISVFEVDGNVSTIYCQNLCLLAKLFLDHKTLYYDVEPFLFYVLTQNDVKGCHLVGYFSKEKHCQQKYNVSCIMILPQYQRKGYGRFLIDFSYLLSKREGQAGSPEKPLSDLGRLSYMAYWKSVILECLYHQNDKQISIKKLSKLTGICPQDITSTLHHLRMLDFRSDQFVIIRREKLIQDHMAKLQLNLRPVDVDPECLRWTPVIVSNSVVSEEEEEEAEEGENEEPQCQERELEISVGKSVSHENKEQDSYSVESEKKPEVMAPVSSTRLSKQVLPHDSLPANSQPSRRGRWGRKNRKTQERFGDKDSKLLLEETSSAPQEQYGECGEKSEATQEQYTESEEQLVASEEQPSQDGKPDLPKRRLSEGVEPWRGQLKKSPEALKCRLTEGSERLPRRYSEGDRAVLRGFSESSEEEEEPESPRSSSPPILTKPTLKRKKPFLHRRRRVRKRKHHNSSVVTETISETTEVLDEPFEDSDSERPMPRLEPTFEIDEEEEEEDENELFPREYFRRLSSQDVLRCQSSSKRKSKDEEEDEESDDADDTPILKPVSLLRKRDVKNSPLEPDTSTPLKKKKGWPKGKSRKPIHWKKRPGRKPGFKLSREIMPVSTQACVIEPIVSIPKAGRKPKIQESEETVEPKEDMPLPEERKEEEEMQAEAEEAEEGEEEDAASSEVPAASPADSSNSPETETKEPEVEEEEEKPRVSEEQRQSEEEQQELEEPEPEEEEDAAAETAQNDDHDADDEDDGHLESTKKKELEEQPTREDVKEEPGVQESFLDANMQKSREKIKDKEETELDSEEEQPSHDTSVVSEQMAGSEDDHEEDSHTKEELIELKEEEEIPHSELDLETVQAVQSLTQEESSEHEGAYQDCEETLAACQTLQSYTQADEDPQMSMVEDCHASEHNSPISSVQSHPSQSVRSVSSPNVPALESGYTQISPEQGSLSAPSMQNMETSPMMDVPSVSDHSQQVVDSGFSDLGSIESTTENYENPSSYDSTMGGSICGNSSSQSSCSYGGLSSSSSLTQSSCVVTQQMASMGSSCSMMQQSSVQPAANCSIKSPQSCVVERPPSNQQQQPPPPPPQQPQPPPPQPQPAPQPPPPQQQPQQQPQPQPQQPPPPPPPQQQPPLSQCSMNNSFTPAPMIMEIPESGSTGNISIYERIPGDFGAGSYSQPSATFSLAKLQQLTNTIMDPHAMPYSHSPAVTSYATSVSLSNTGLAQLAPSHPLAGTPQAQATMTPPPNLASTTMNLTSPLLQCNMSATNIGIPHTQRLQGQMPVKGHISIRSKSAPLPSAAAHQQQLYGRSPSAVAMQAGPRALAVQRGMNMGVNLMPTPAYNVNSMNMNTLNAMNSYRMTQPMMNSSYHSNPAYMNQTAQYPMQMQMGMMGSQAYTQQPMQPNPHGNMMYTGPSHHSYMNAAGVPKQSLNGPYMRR

Compound | IC50 [nM]
C=C(C)c1ccc2cc(C(=O)NS(=O)(=O)c3ccccc3-c3ccccc3)oc2c1 [WO2022081842, Example 23] | 215
O=C(NS(=O)(=O)c1ccccc1-c1ccccc1)c1cc2c(F)cc(C3CC3)cc2o1 [WO2022081842, Example 38] | 17
CCOc1ccccc1S(=O)(=O)NC(=O)c1cc2c(OC(F)F)cc(C3CC3)cc2o1 [WO2022081842, Example 49] | 29
CCOc1ccccc1S(=O)(=O)NC(=O)c1cc2c(C(F)(F)F)cc(C3CC3)cc2o1 [WO2022081842, Example 51] | 26
CC(C)c1ccc2cc(C(=O)NS(=O)(=O)c3ccc(Cl)cc3Cl)oc2c1 [WO2022081842, Example 57] | 611
CCOc1ccccc1S(=O)(=O)NC(=O)c1cc2c(-n3ccnc3)cc(C3CC3)cc2o1 [WO2022081842, Example 58] | 40

target: Histone acetyltransferase KAT6B (Human, UniProt Q8WYB5); experiment: Kat6b Activity Assay
Text: Kat6b inhibitory activities of the compounds described in the present invention were quantified using a Fluorescence Resonance Energy Transfer (TR-FRET) assay which measures acetylation of a synthetic, biotinylated Histone-H4-derived peptide by the enzyme.Recombinant human GST-tagged Kat6b protein (431-end, N-terminal GST-tag), purified from Baculovirus- infected insect cells (Sf9), was purchased from SignalChem (#K315-381BG). Histone H4 peptide (amino acids 1-24, […]-VLRD-K(Btn)-amide), which was used as substrate, was synthesized by Biosyntan GmbH, Berlin, Germany. Acetyl Coenzyme A was purchased from Sigma-Aldrich (#A-2056). Kat6b was incubated for 30 mins at 22°C in the presence of different concentrations of test substances (0 μM, and within the range 0.01 - 20 μM) in assay buffer [25 mM Tris/HCl pH 8, 1 mM EGTA, 2.5 mM Glutathion, 0.02% Chicken Albumin, 0.05% Pluronic F127, 25 mM NaCl, 500 nM H4 peptide and 600 nM Acetyl Coenzyme A].The reaction was stopped by addition of Detection Solution (25mM HEPES pH 7.5, 0.1% BSA, 22nM SAXL665 (Cisbio #610SAXLE), 100μM Anacardic Acid (Enzo #ALX-270-381), 1nM Anti-Histone H4 (ACETYL K8) Antibody (ABCAM #AB15823), 0.5 nM Anti-Rabbit IgG Eu (Perkin Elmer #AD0083).The fluorescence emission at 620 nm and 665 nm after excitation at 330-350 nm was measured in a TR-FRET measuring instrument, for instance a Rubystar or a Pherastar (both from BMG Lab Technologies, Offenburg, Germany) or a Viewlux (Perkin-Elmer). The ratio of the emission at 665 nm and at 622 nm was used as indicator of the amount of acetylated peptide.The resulting data (ratio) were normalized, taking 0% inhibition as the mean value of control measurements where all reagents were included. In this case 50 nl DMSO were used instead of compounds. A 100% inhibition corresponded to the mean value of control measurements where all reagents except enzyme were included. IC50 values were determined by regression analysis based on a 4 parameter equation (minimum, maximum, ICM, Hill; Y = Max + (Min - Max) / (1 + (X/ICso) Hill) using the Screener Software (Genedata).

Histone acetyltransferase KAT6B, sequence (Q8WYB5 whole entry, the tested form may be a part): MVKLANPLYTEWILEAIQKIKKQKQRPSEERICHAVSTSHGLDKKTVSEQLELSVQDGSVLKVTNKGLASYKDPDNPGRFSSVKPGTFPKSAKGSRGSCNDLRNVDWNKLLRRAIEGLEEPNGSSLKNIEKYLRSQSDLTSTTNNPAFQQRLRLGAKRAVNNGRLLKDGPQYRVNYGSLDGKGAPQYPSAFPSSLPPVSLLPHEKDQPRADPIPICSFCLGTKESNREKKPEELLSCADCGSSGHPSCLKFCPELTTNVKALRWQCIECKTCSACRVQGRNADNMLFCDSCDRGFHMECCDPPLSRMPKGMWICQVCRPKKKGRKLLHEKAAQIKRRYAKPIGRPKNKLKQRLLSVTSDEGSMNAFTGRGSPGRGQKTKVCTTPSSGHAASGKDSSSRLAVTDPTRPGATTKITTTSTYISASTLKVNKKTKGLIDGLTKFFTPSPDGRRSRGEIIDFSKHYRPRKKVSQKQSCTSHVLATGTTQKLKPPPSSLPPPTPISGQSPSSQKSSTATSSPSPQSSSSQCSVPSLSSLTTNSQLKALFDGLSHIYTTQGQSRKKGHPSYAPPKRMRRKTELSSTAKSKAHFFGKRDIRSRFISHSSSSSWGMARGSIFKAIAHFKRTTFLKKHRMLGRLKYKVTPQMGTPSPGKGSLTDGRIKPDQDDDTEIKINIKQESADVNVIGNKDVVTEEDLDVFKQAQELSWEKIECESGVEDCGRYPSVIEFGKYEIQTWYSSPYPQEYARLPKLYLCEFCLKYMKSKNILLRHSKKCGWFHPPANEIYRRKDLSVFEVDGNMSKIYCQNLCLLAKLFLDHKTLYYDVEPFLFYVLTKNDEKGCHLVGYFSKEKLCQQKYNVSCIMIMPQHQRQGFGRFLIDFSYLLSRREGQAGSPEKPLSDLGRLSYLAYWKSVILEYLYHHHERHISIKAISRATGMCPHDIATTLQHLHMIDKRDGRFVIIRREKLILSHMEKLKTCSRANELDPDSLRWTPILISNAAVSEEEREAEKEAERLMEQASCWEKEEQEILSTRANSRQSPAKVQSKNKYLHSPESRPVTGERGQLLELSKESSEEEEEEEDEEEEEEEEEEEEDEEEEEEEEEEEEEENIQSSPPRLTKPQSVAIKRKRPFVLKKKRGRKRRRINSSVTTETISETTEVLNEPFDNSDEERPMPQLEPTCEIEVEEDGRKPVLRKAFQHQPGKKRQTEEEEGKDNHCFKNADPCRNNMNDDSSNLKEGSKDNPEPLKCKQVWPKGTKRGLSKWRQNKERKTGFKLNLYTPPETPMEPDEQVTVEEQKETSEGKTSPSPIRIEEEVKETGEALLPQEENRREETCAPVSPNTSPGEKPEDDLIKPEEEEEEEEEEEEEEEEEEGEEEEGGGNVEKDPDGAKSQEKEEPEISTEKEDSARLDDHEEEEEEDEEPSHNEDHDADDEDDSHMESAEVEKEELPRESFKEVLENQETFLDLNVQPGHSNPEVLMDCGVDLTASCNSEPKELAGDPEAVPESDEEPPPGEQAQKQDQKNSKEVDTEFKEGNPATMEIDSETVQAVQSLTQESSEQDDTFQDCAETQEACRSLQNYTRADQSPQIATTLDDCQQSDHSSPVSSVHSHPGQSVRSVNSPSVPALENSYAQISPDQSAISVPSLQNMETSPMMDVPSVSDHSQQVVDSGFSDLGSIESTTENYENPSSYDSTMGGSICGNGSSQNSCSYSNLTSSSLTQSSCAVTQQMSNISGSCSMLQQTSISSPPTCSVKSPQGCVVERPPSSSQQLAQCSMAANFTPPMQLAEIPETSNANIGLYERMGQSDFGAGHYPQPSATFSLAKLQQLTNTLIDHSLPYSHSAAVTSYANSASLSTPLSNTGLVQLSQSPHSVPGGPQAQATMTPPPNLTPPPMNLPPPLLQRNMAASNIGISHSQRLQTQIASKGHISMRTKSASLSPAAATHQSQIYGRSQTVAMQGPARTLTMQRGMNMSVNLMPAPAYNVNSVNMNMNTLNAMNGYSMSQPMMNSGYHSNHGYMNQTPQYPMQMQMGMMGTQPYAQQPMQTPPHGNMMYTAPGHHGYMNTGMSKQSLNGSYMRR

Compound | IC50 [nM]
O=C(NS(=O)(=O)c1ccccc1-c1ccccc1)c1cc2ccc(-c3cccnc3)cc2o1 [WO2022081842, Example 4] | > 20000
O=C(O)c1ccc2cc(C(=O)NS(=O)(=O)c3ccccc3-c3ccccc3)oc2c1 [WO2022081842, Example 5] | > 20000
CN(C)C(=O)c1ccc2cc(C(=O)NS(=O)(=O)c3ccccc3-c3ccccc3)oc2c1 [WO2022081842, Example 8] | > 20000
Cc1ccc2cccc(S(=O)(=O)NC(=O)c3cc4c(F)cc(C5CC5)cc4o3)c2n1 [WO2022081842, Example 22] | 23
C=C(C)c1ccc2cc(C(=O)NS(=O)(=O)c3ccccc3-c3ccccc3)oc2c1 [WO2022081842, Example 23] | 155
CCOc1ccccc1S(=O)(=O)NC(=O)c1cc2c(F)cc(C3CC3)cc2o1 [WO2022081842, Example 25] | 28
CC(C)c1ccc2cc(C(=O)NS(=O)(=O)c3ccc(Cl)cc3Cl)oc2c1 [WO2022081842, Example 57] | 5250
CC(C)(C)c1ccc(OCc2ccccc2)c(S(=O)(=O)NC(=O)c2cc3c(F)cc(C4CC4)cc3o2)c1 [WO2022081842, Example 60] | 45
